# Where two headings read alike, the source gives them in different places.
# Columns and labels:
# Type in all cases: in vivo, human
# [1] = tested on: insulin-like growth factor binding protein I (IGF BP-I); assay: Serum insulin-like growth factor binding protein I (immunoassay); settings: DHEA 50 mg, 3 months
# Method: (§1) Blood specimens are drawn from patients immediately prior to the onset of DHEA administration and preferentially at 30 days after the beginning of treatment and at periodic intervals thereafter determined by the treating physician. Serum IGF-I and IGF BP-I levels are determined by immunoassay on these blood specimens. There are a variety of immunoassay methods available for determination of IGF-I and IGF BP-I which are reported in the literature and which are known to those of skill in the art. (Breier, B.H., et al., J. of Endocrinol., 1991, 128:347-357 and Pekonen, F. et al. J. Immunoassay, 1989, 10:325-337.
# (§2) Seventeen women and 13 men ages 40-70 in good medical health were enrolled in a clinical trial of DHEA replacement of 6 months duration. The trial was structured as a double-blind randomized placebo-controlled crossover study. […] These subjects were seen monthly and received 50 mg DHEA orally, nightly for 3 months and placebo for 3 months.
# (§3) Insulin-like growth factor I and insulin-like growth factor binding protein I were measured in serum specimens by immunoassay as described previously.
# [2] = Serum apolipoproteins (immunoassay); settings: DHEA (50 mg) × 3 months, mean ± standard error
# Method: as §2
# (§4) Serum cholesterol, triglycerides, apolipoproteins A1 and B, and the HDL and LDL lipoproteins were measured on all serum specimens. Cholesterol, triglycerides, HDL and LDL were measured by standard enzymatic methods. (Allain, C.A., et al., Clin. Chem. 1974, 20:470.) Apolipoproteins were measured by immunoassay methods. Immunoassay methods for measurement of apolipoproteins are described in the literature. […] All other lipid or lipoprotein levels were unchanged by the DHEA administration.
# [3] = tested on: sex-hormone binding globulin; assay: Serum sex-hormone binding globulin during oral DHEA (immunoassay); settings: 50 mg DHEA orally, nightly
# Method: (§5) FIG. 2: Hormonal levels during DHEA (50 mg) therapy (represented by stippled area) in men and women. ADIONE (androstenedione); TEST (testosterone); DHT(dihydrotestosterone); SHBG(sex-hormone binding globulin). The shaded area represents the duration of DHEA treatment.
# as §2
# (§6) Blood specimens were drawn from all subjects in the study at baseline (time 0) and at 2 weeks and 12 weeks after DHEA administration, and at 2 weeks after DHEA administration was discontinued. DHEA, DHEAS, androstenedione, testosterone, dihydrotestosterone, and the sex hormone binding globulin were all measured by immunoassay as described by Anderson, D.C., et al. Steroid, 1976, 28:179.
# (§7) Serum levels of testosterone, androstenedione, and dihydrotestosterone, as well as the sex-hormone binding globulin are shown in FIG. 2.
# [4] = Pharmacokinetic study comparing oral and sublingual administration of DHEA; settings: for Tmax: human, serum, read-out: time to peak levels of DHEA
# Method: FIG. 5: Hormonal levels in men and women after oral 50 mg DHEA (.cndot. and sublingual 50 mg. DHEA (.smallcircle. ).
# A pharmacokinetic study comparing oral and sublingual administration of DHEA was performed on the men and women subjects. DHEA, DHEAS, androstenedione, testosterone and dihydrotestosterone were measured by the immunoassay methods described above on serum specimens drawn at 30 minutes, 1 hour, 2 hours, 4 hours, 5 hours and 8 hours after dose administration. […] Peak levels of DHEA were achieved within 30 minutes with the sublingual route and 3 hours with the oral route.
# [5] = Body composition (% body fat by bioelectric impedance, BMI); settings: DHEA 50 mg orally, nightly, 3 months, mean ± standard error
# Method: The term "BMI" means body mass index which is body weight (kg)/height (m^2).
# as §2
# (§8) Insulin sensitivity and glucose effectiveness were measured by euglycemic hyperinsulinemic clamp (Bergman, R.N. J. Clin. Invest., 1987, 79:790-800) and rapid intravenous glucose tolerance test (Bergman, R.N., et al. Amer. J. Physiol., 1979, 236:667-677) and % body fat as measured by bioelectric impedance (Lukaski, H. Amer. J. Nutrition, 1987, 46:537) were measured on all patients after DHEA of placebo treatment. The glucose disposal rate was also measured using Bergman, 1987 (supra).
# [6] = Glucose metabolism (euglycemic hyperinsulinemic clamp, rapid intravenous glucose tolerance test); settings: DHEA 50 mg orally, nightly, 3 months, mean ± standard error
# Method: as §2, §8
# [7] = Serum cholesterol, triglycerides, HDL and LDL (standard enzymatic methods); settings: for CHOLESTEROL / HDL / LDL / TG: DHEA (50 mg) × 3 months, mean ± standard error
# Method: as §2, §4
# [8] = Self-reported libido (visual analog scale); settings: end of 3 month DHEA period
# Method: as §2
# (§9) Libido was self-reported by the patients and scored on a visual analog scale. Subjects were evaluated at the end at the 3 month period of DHEA or placebo treatment.
# [9] = Sense of well-being or mood-elevating effect (question to subjects); settings: DHEA 50 mg, 3 months
# Method: as §2
# Sense of well-being or mood-elevating effect was reported in response to a question: "Have you noted any effect, good or bad during this treatment?
# as §9
# [10] = Serum DHEA and DHEAS levels during oral DHEA (immunoassay)
# Method: FIG. 1: DHEAS and DHEA serum levels in men and women at baseline, 2 and 12 weeks of DHEA (50 mg) administration and 2 weeks after discontinuation. The horizontal solid line represents mean level during the second decade of life.
# as §2, §6, §7
# [11] = tested on: insulin-like growth factor I (IGF-I); assay: Serum insulin-like growth factor I (immunoassay); settings: DHEA 50 mg, 3 months
# Method: as §1, §2, §3
# [12] = Side effects and safety parameters (physical exams, hematology, chemistry) in clinical trial; settings: 17 women and 13 men ages 40-70; 50 mg orally, nightly, 3 months
# Method: as §2
# [13] = tested on: testosterone, androstenedione, and dihydrotestosterone; assay: Serum androgen levels during oral DHEA (immunoassay); settings: 50 mg DHEA orally, nightly
# Method: as §5, §2, §6, §7
smiles,measurement,setting,value
"C[C@]12CC[C@H](O)CC1=CC[C@@H]1[C@@H]2CC[C@]2(C)C(=O)CC[C@@H]12 [DHEA, dehydroepiandrosterone]","IGF BP-I (change, in words)",[1]; men and women,decrease
same,IGF BP-I decrease,[1]; men,12%
same,IGF BP-I decrease,[1]; women,22%
same,APO A1,[2]; men,167.4 ± 6.1
same,APO B,[2]; men,149.8 ± 8.5
same,APO A1,[2]; women,213.7 ± 8.1
same,APO B,[2]; women,137.4 ± 5.9
same,Sex-hormone binding globulin level,[3],a trend of decline but this decline was not statistically significant
same,"rate of absorption, sublingual versus oral","[4]; 50 mg, men and women",absorbed most rapidly sublingually
same,Tmax,[4]; oral 50 mg,≤ 3 h
same,Tmax,[4]; sublingual 50 mg,≤ 0.5 h
same,% FAT,[5]; men,21.9 ± 1.3%
same,BMI,[5]; men,27.0 ± 0.7 kg/m^2
same,% FAT,[5]; women,31.3 ± 1.0%
same,BMI,[5]; women,24.7 ± 0.7 kg/m^2
same,GLUCOSE DISPOSAL RATE,[6]; men,7.64 ± 0.056 mg/kg/min
same,GLUCOSE EFFECTIVENESS,[6]; men,0.019 ± 0.001 min⁻¹
same,INSULIN SENSITIVITY,[6]; men,3.69 ± 0.5 × 10^-4 min^-1 uU^-1 ml
same,GLUCOSE EFFECTIVENESS,[6]; women,0.024 ± 0.002 min⁻¹
same,INSULIN SENSITIVITY,[6]; women,2.90 ± 0.4 × 10^-4 min^-1 uU^-1 ml
same,CHOLESTEROL,[7]; men,209.9 ± 9.4
same,HDL,[7]; men,44.8 ± 1.7
same,LDL,[7]; men,147.5 ± 8.5
same,TG,[7]; men,107.7 ± 10.5
same,"all other lipid or lipoprotein levels (change, in words)","[7]; women and men, DHEA 50 mg, 3 months",unchanged
same,"HDL levels (change, in words)","[7]; women, DHEA 50 mg, 3 months",Only a small reduction in HDL levels were seen in women
same,CHOLESTEROL,[7]; women,218.3 ± 6.9
same,HDL,[7]; women,63.4 ± 2.7
same,LDL,[7]; women,136.0 ± 4.9
same,TG,[7]; women,94.2 ± 7.4
same,self-reported libido,[8],no difference was seen while subjects were on DHEA
same,mood-elevating effect,"[9]; majority of both men and women, in retrospect",An impressive mood-elevating effect was noted in retrospect by the majority of both men and women
same,responses to question on effect noted during treatment,[9]; men and women,"""sleeping better"" ""better ability to handle stress"" ""more relaxed"", ""easier time falling asleep"", ""more energy"" and ""better moods"""
same,blood levels of DHEA,"[10]; adults 40-80 years old, 50 to 100 mg orally or sublingually daily, FIG. 1",in the physiological range for younger adults
same,DHEAS serum levels (maintenance),"[10]; men and women, 50 mg DHEA orally, nightly, three month trial",maintained throughout the three month trial
same,DHEAS serum levels (rise),"[10]; men and women, 50 mg DHEA orally, nightly, within 2 weeks of administration",rose to those levels seen in the second decade of life within 2 weeks of administration
same,time for DHEAS levels to return to baseline after discontinuing DHEA,"[10]; men and women, after discontinuing 50 mg DHEA",≤ 2 weeks
same,"IGF-I (change, in words)",[11]; men and women,statistically significant elevation
same,"free IGF-I (change, in words)","[11]; men and women, inferred from IGF-I and IGF BP-I",overall increase in free IGF-I
same,IGF-I increase,[11]; men,10%
same,IGF-I increase,[11]; women,12%
same,"Safety parameters (physical exams, hematology, chemistry)",[12],all within normal limits
same,side effects,[12],No side effects were reported
same,"androgens, particularly dihydrotestosterone and estrogens",[13]; men,no changes in any androgens
same,"androgen levels (testosterone, androstenedione, dihydrotestosterone)",[13]; women,doubling of their androgen levels
